Several values for one entry are separate records, joined by “and”; a condition that tells them apart may be missing. Identical values can stand only once.
Columns and labels:
Type in all cases: biochemical
[1] = target: T1, human plasmin (Homo sapiens, UniProt P00747); test: Direct inhibition of human plasmin, chromogenic substrate; conditions: for HS (Hill slope): Tris-HCl buffer pH 7.4, 37 °C
[2] = target: T1, human plasmin; test: Michaelis-Menten kinetics of Spectrozyme PL hydrolysis by human plasmin
[3] = target: T1, human plasmin; test: Protamine reversibility of plasmin inhibition by NSGM 2; conditions: plasmin treated with inhibitor 2 (200 μM), pH 7.4, 37 °C

T1 sequence (P00747 97-580 limits assumed): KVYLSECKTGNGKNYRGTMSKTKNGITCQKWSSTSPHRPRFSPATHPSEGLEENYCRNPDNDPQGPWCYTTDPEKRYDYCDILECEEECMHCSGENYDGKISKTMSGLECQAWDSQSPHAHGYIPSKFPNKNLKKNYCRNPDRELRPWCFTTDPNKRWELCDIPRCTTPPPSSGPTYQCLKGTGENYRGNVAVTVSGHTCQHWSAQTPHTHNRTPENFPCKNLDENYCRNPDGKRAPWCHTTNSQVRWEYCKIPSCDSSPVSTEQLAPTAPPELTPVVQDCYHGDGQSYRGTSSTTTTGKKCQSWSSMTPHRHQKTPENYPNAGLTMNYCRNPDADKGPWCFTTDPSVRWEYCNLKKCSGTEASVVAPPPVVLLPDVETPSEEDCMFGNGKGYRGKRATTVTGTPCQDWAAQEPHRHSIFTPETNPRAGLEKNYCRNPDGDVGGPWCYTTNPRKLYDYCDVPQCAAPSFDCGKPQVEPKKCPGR
T1 sequence (P00747 581-810 limits assumed): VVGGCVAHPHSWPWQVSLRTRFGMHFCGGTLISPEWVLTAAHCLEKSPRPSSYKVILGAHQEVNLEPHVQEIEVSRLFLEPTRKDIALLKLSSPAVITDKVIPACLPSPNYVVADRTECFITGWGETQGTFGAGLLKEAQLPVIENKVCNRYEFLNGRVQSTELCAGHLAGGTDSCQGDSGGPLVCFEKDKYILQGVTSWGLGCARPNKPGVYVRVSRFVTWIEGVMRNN

Row | Compound | HS (Hill slope) [1] | other results
1 | O=c1c(OS(=O)(=O)[O-])c(-c2ccc(OS(=O)(=O)[O-])c(OS(=O)(=O)[O-])c2)oc2cc(OS(=O)(=O)[O-])cc(OCc3ccc(COc4cc(OS(=O)(=O)[O-])cc5oc(-c6ccc(OS(=O)(=O)[O-])c(OS(=O)(=O)[O-])c6)c(OS(=O)(=O)[O-])c(=O)c45)cc3)c12.[Na+].[Na+].[Na+].[Na+].[Na+].[Na+].[Na+].[Na+] | 0.7 ± 0.1 | VMAX ([2]; [inhibitor] 1.6 μM, pH 7.4, 37 °C): 36.3 ± 2.0 mAU/min; VMAX ([2]; [inhibitor] 8 μM): 29.0 ± 0.6 mAU/min; VMAX ([2]; [inhibitor] 100 μM): 15.1 ± 1.0 mAU/min; VMAX ([2]; [inhibitor] 200 μM, listed as 2): 10.4 mAU/min and 10.4 ± 0.5 mAU/min
2 | O=c1c(O)c(-c2ccc(O)c(O)c2)oc2cc(O)cc(OCc3ccc(COc4cc(O)cc5oc(-c6ccc(O)c(O)c6)c(O)c(=O)c45)cc3)c12 [1j, 5,5′-((1,4-Phenylenebis(methylene))bis(oxy))bis(2-(3,4-dihydroxyphenyl)-3,7-dihydroxy-4H-chromen-4-one)] |  | fold less potent plasmin inhibition than NSGM 2 ([1]; 1j versus 2): about 18.3 fold; VMAX ([2]; [inhibitor] 100 μM): 51.0 ± 4.6 mAU/min; VMAX ([2]; [inhibitor] 240 μM): 51.7 ± 3.9 mAU/min; VMAX ([2]; [inhibitor] 400 μM): 51.3 ± 4.0 mAU/min; mechanism of plasmin inhibition ([2]; from Michaelis-Menten kinetics): competitive; fold increase in KM ([2]; inhibitor concentration reaching 400 μM): ~ 13.5 fold; VMAX across inhibitor concentrations ([2]; inhibitor concentration reaching 400 μM, essentially unchanged): 50.6–51.3 mAU/min
3 | O=c1c(OS(=O)(=O)[O-])c(-c2ccc(OS(=O)(=O)[O-])c(OS(=O)(=O)[O-])c2)oc2cc(OS(=O)(=O)[O-])cc(OCCCCOc3cc(OS(=O)(=O)[O-])cc4oc(-c5ccc(OS(=O)(=O)[O-])c(OS(=O)(=O)[O-])c5)c(OS(=O)(=O)[O-])c(=O)c34)c12.[Na+].[Na+].[Na+].[Na+].[Na+].[Na+].[Na+].[Na+] [NSGM 1] | 1.0 ± 0.2 | 
4 | O=c1c(OS(=O)(=O)[O-])c(-c2ccc(OS(=O)(=O)[O-])c(OS(=O)(=O)[O-])c2)oc2cc(OS(=O)(=O)[O-])cc(OCc3ccc(-c4ccc(COc5cc(OS(=O)(=O)[O-])cc6oc(-c7ccc(OS(=O)(=O)[O-])c(OS(=O)(=O)[O-])c7)c(OS(=O)(=O)[O-])c(=O)c56)cc4)cc3)c12.[Na+].[Na+].[Na+].[Na+].[Na+].[Na+].[Na+].[Na+] [NSGM 3, Sodium 4-(5-((4′-(((2-(3,4-Bis(sulfonatooxy)phenyl)-4-oxo-3,7-bis(sulfonatooxy)-4H-chromen-5-yl)oxy)methyl)-[1,1′-bi-phenyl]-4-yl)methoxy)-4-oxo-3,7-bis(sulfonatooxy)-4H-chromen-2-yl)-1,2-phenylene Bis(sulfate)] | 0.8 ± 0.2 | 
5 | Cc1cc(COc2cc(OS(=O)(=O)[O-])cc3oc(-c4ccc(OS(=O)(=O)[O-])c(OS(=O)(=O)[O-])c4)c(OS(=O)(=O)[O-])c(=O)c23)c(C)cc1COc1cc(OS(=O)(=O)[O-])cc2oc(-c3ccc(OS(=O)(=O)[O-])c(OS(=O)(=O)[O-])c3)c(OS(=O)(=O)[O-])c(=O)c12.[Na+].[Na+].[Na+].[Na+].[Na+].[Na+].[Na+].[Na+] [NSGM 4, Sodium 4-(5-((4-(((2-(3,4-Bis(sulfonatooxy)phenyl)-4-oxo-3,7-bis(sulfonatooxy)-4H-chromen-5-yl)oxy)methyl)-2,5-dimethylbenzyl)oxy)-4-oxo-3,7-bis(sulfonatooxy)-4H-chromen-2-yl)-1,2-phenylene Bis(sulfate)] | 0.7 ± 0.1 | 
6 | O=c1c(OS(=O)(=O)[O-])c(-c2ccc(OS(=O)(=O)[O-])c(OS(=O)(=O)[O-])c2)oc2cc(OS(=O)(=O)[O-])cc(OCc3cccc(COc4cc(OS(=O)(=O)[O-])cc5oc(-c6ccc(OS(=O)(=O)[O-])c(OS(=O)(=O)[O-])c6)c(OS(=O)(=O)[O-])c(=O)c45)c3)c12.[Na+].[Na+].[Na+].[Na+].[Na+].[Na+].[Na+].[Na+] [NSGM 5, Sodium 4-(5-((3-(((2-(3,4-Bis(sulfonatooxy)phenyl)-4-oxo-3,7-bis(sulfonatooxy)-4H-chromen-5-yl)oxy)methyl)benzyl)-oxy)-4-oxo-3,7-bis(sulfonatooxy)-4H-chromen-2-yl)-1,2-phenylene Bis(sulfate)] | 0.6 ± 0.1 | 
7 | O=c1c(OS(=O)(=O)[O-])c(-c2ccc(OS(=O)(=O)[O-])c(OS(=O)(=O)[O-])c2)oc2cc(OS(=O)(=O)[O-])cc(OCc3cccc(COc4cc(OS(=O)(=O)[O-])cc5oc(-c6ccc(OS(=O)(=O)[O-])c(OS(=O)(=O)[O-])c6)c(OS(=O)(=O)[O-])c(=O)c45)n3)c12.[Na+].[Na+].[Na+].[Na+].[Na+].[Na+].[Na+].[Na+] [NSGM 6, Sodium 4-(5-((6-(((2-(3,4-Bis(sulfonatooxy)phenyl)-4-oxo-3,7-bis(sulfonatooxy)-4H-chromen-5-yl)oxy)methyl)pyridin-2-yl)methoxy)-4-oxo-3,7-bis(sulfonatooxy)-4H-chromen-2-yl)-1,2-phenylene Bis(sulfate)] | 0.8 ± 0.2 | 
8 | O=c1cc(-c2ccc(OS(=O)(=O)[O-])cc2)oc2cc(OS(=O)(=O)[O-])cc(OCCOc3cc(OS(=O)(=O)[O-])cc4oc(-c5ccc(OS(=O)(=O)[O-])cc5)cc(=O)c34)c12.[Na+].[Na+].[Na+].[Na+] [NSGM 7, Sodium 4-Oxo-5-(2-((4-oxo-7-(sulfonatooxy)-2-(4-(sulfonatooxy)phenyl)-4H-chromen-5-yl)oxy)ethoxy)-2-(4-(sulfonatooxy)phenyl)-4H-chromen-7-yl Sulfate] | 2.4 ± 0.3 | 
9 | O=c1cc(-c2ccc(OS(=O)(=O)[O-])cc2)oc2cc(OS(=O)(=O)[O-])cc(OCCCCOc3cc(OS(=O)(=O)[O-])cc4oc(-c5ccc(OS(=O)(=O)[O-])cc5)cc(=O)c34)c12.[Na+].[Na+].[Na+].[Na+] [NSGM 9, Sodium 4-Oxo-5-(4-((4-oxo-7-(sulfonatooxy)-2-(4-(sulfonatooxy)phenyl)-4H-chromen-5-yl)oxy)butoxy)-2-(4-(sulfonatooxy)phenyl)-4H-chromen-7-yl Sulfate] | 1.8 ± 0.3 | 
10 | O=c1cc(-c2ccc(OS(=O)(=O)[O-])cc2)oc2cc(OS(=O)(=O)[O-])cc(OC/C=C/COc3cc(OS(=O)(=O)[O-])cc4oc(-c5ccc(OS(=O)(=O)[O-])cc5)cc(=O)c34)c12.[Na+].[Na+].[Na+].[Na+] [NSGM 10, Sodium (E)-4-Oxo-5-((4-((4-oxo-7-(sulfonatooxy)-2-(4-(sulfonatooxy)phenyl)-4H-chromen-5-yl)oxy)but-2-en-1-yl)-oxy)-2-(4-(sulfonatooxy)phenyl)-4H-chromen-7-yl Sulfate] | 0.9 ± 0.2 | 
11 | O=c1cc(-c2ccc(OS(=O)(=O)[O-])cc2)oc2cc(OS(=O)(=O)[O-])cc(OCc3ccc(COc4cc(OS(=O)(=O)[O-])cc5oc(-c6ccc(OS(=O)(=O)[O-])cc6)cc(=O)c45)cc3)c12.[Na+].[Na+].[Na+].[Na+] [NSGM 11, Sodium 4-Oxo-5-((4-(((4-oxo-7-(sulfonatooxy)-2-(4-(sulfonatooxy)phenyl)-4H-chromen-5-yl)oxy)methyl)benzyl)-oxy)-2-(4-(sulfonatooxy)phenyl)-4H-chromen-7-yl Sulfate] | 2.4 ± 0.3 | 
12 | O=c1cc(-c2ccc(OS(=O)(=O)[O-])cc2)oc2cc(OS(=O)(=O)[O-])cc(OCc3ccc(-c4ccc(COc5cc(OS(=O)(=O)[O-])cc6oc(-c7ccc(OS(=O)(=O)[O-])cc7)cc(=O)c56)cc4)cc3)c12.[Na+].[Na+].[Na+].[Na+] [NSGM 12, Sodium 4-Oxo-5-((4′-(((4-oxo-7-(sulfonatooxy)-2-(4-(sulfonatooxy)phenyl)-4H-chromen-5-yl)oxy)methyl)-[1,1′-bi-phenyl]-4-yl)methoxy)-2-(4-(sulfonatooxy)phenyl)-4H-chromen-7-yl Sulfate] | 1.1 ± 0.1 | 
13 | Cc1cc(COc2cc(OS(=O)(=O)[O-])cc3oc(-c4ccc(OS(=O)(=O)[O-])cc4)cc(=O)c23)c(C)cc1COc1cc(OS(=O)(=O)[O-])cc2oc(-c3ccc(OS(=O)(=O)[O-])cc3)cc(=O)c12.[Na+].[Na+].[Na+].[Na+] [NSGM 13, Sodium 5-((2,5-Dimethyl-4-(((4-oxo-7-(sulfonatooxy)-2-(4-(sulfonatooxy)phenyl)-4H-chromen-5-yl)oxy)methyl)benzyl)-oxy)-4-oxo-2-(4-(sulfonatooxy)phenyl)-4H-chromen-7-yl Sulfate] | 2.0 ± 0.1 | 
14 | O=c1cc(-c2ccc(OS(=O)(=O)[O-])cc2)oc2cc(OS(=O)(=O)[O-])cc(OCc3cccc(COc4cc(OS(=O)(=O)[O-])cc5oc(-c6ccc(OS(=O)(=O)[O-])cc6)cc(=O)c45)c3)c12.[Na+].[Na+].[Na+].[Na+] [NSGM 14, Sodium 4-Oxo-5-((3-(((4-oxo-7-(sulfonatooxy)-2-(4-(sulfonatooxy)phenyl)-4H-chromen-5-yl)oxy)methyl)benzyl)-oxy)-2-(4-(sulfonatooxy)phenyl)-4H-chromen-7-yl Sulfate] | 2.3 ± 0.5 | 
15 | O=c1cc(-c2ccc(OS(=O)(=O)[O-])cc2)oc2cc(OS(=O)(=O)[O-])cc(OCc3cccc(COc4cc(OS(=O)(=O)[O-])cc5oc(-c6ccc(OS(=O)(=O)[O-])cc6)cc(=O)c45)n3)c12.[Na+].[Na+].[Na+].[Na+] [NSGM 15, Sodium 4-Oxo-5-((6-(((4-oxo-7-(sulfonatooxy)-2-(4-(sulfonatooxy)phenyl)-4H-chromen-5-yl)oxy)methyl)pyridin-2-yl)methoxy)-2-(4-(sulfonatooxy)phenyl)-4H-chromen-7-yl Sulfate] | 1.2 ± 0.2 | 
16 | O=c1cc(-c2ccc(OS(=O)(=O)[O-])cc2)oc2cc(OS(=O)(=O)[O-])cc(OCc3ccc(COc4cc(OS(=O)(=O)[O-])cc5oc(-c6ccc(OS(=O)(=O)[O-])c(OS(=O)(=O)[O-])c6)c(OS(=O)(=O)[O-])c(=O)c45)cc3)c12.[Na+].[Na+].[Na+].[Na+].[Na+].[Na+] [NSGM 16, Sodium 4-(4-Oxo-5-((4-(((4-oxo-7-(sulfonatooxy)-2-(4-(sulfonatooxy)phenyl)-4H-chromen-5-yl)oxy)methyl)benzyl)-oxy)-3,7-bis(sulfonatooxy)-4H-chromen-2-yl)-1,2-phenylene Bis(sulfate)] | 0.9 ± 0.1 | 
17 | protamine |  | efficacy of restoring plasmin activity [3]: ~ 100%

Reference: article PMC8788145 (Journal of medicinal chemistry, 2017)
